Measurements published in patent US20070160684A1, “Methods for increasing cancer cell chemosensitivity” (priority 2005, published 2007).

What was measured:
[1] = test system: H2AX Ser139 phosphorylation; assay: Western analysis of H2AX phosphorylation in Pa-4 and Pa-4/HMGA2 cells; assay type: cell-based; details: 4 mM caffeine or 10 μM NU7026 1 hour, then with 1 μM Dox 2 hours
Protocol: To ascertain whether HMGA2 effects Dox-induced ATM signaling activation, phosphorylation of ATM Ser1981 and H2AX Ser139 was assayed in the presence and absence of Dox (2 μM in ATM assays, 1 μM in H2AX assays). At various timepoints after Dox treatment, cell lysates were removed and subjected to Western analyses using monoclonal anti-phospho-ATM antibodies (Ser1981), polyclonal anti-ATM antibodies (Santa Cruz Biotechnology, Santa Cruz, Calif.), monoclonal anti-phospho-H2AX antibodies ([…]) (Upstate Cell Signaling), or anti-H2AX antibodies. Control Western analyses were performed using monoclonal anti-actin antibodies. […] HeLa and HeLa/HMGA2 cells
(§1) NU7026 (Calbiochem, San Diego, Calif.) was dissolved in DMSO at 5 mM and stored at −20° C. […] Cell lysates were removed and subjected to Western analyses using monoclonal anti-phospho-H2AX (Ser 139) antibodies. Control Western analyses were performed using monoclonal anti-actin antibodies.

H2AX phosphorylation = assay: Western analysis of H2AX phosphorylation in HS578T and HCC1419 cells; assay type: cell-based
Protocol: as §1
Experiments were repeated using HS578T and HCC1419 cells treated with 2 μM rather than 1 μM Dox.

DNA-PK = DNA-PK (Homo sapiens, UniProt P78527); details: reported (Veuger 2003; Willmore 2004); cited from earlier work
ATM = ATM (Homo sapiens, UniProt Q13315); details: reported (Veuger 2003; Willmore 2004); cited from earlier work
ATR = ATR (Homo sapiens, UniProt Q13535); details: reported (Veuger 2003; Willmore 2004); cited from earlier work
[2] = test system: HeLa and HeLa/HMGA2 cells; assay: MTT cell viability assay; assay type: cell-based; details: increasing concentrations, 72 hours
Source text: HS578T, HCC1419, and CHO cells

Pa-4 cells = details: 4 mM caffeine 1 hour, then 1 μM Dox and 4 mM caffeine 48 hours
Pa-4/HMGA2 cells = assay: FACS analysis after caffeine and Dox (G2/M, sub-G1); assay type: cell-based
Protocol: Pa-4 and Pa-4/HMGA2 cells were seeded at 50-80% confluency in 35 mm dishes and serum starved overnight to synchronize cell cycle. […] Following treatment, cells were fixed in 70% ethanol overnight, stained with 20 μg/ml propidium iodide, and subjected to FACS analysis.
Apoptosis was quantified by assessing sub-G1 cell populations.

[3] = test system: Pa-4 and Pa-4/HMGA2 cells; assay: MTT cell viability assay; assay type: cell-based; details: Dox 0-7 μM or irinotecan 0-50 μM
[4] = molecular target: Ku80 (80-kDa subunit of the DNA-PK holoenzyme), endogenous in HeLa and HeLa/HMGA2 cells (UniProt P13010); assay: co-immunoprecipitation with anti-HA antibody from transiently transfected HeLa cells; reference set to 100%
[5] = molecular target: Ku80 (80-kDa subunit of the DNA-PK holoenzyme), endogenous in HeLa and HeLa/HMGA2 cells (UniProt P13010); assay: co-immunoprecipitation with anti-HA antibody from transiently transfected HeLa cells, Western for Ku80, quantitated and normalized
[6] = test system: HeLa, HeLa/HMGA2, HeLa/HMGA2(2K/R) cells; assay: MTT cell viability assay; assay type: cell-based; details: stable expression in HeLa cells, 72 hours
Protocol: FIG. 14: Association of HMGA2-dependent chemosensitization with HMGA2 SUMOylation. HeLa, HeLa/HMGA2, HeLa/HMGA2(2K/R) cells were subjected to treatment with increasing concentrations of Dox (upper panel) or cisplatin (lower panel) for 72 hours, as indicated. Cell viabilities were assessed using MTT assays. * denotes p<0.05; ** denotes p<0.01.
HMGA2 is a SUMOylation target (Cao, X. and Ann, D. K., unpublished observation). To investigate whether SUMOylation is involved in HMGA2-mediated chemosensitization, an HMGA2 mutant was constructed that carried Lysine to Arginine (Lys→Arg) point mutations at residues 66 and 67. These residues correspond to the SUMOyalation site (FIG. 13). The construct (HMGA2(2K/R)) was generated using previously described HA-HMGA2/pcDNA3.1 (Zentner 2001) as a template in conjunction with GeneEditor™ in vitro Site-Directed Mutagenesis System (Promega) and the mutagenesis primer set forth in SEQ ID NO:14. Desired mutations were confirmed by DNA sequencing analyses.

Ku80 = molecular target: T1, Ku80 (Homo sapiens, UniProt P13010); assay: Co-immunoprecipitation of HMGA2 constructs with Ku80 in transfected HeLa cells; assay type: cell-based; details: transient transfection of HeLa cells
T1 construct: Co-immunoprecipitation assays were performed following transient transfection of HeLa cells with these constructs; endogenous in cells; host or cells: HeLa, transiently transfected with HA-HMGA2 constructs
Source text: FIG. 18: Role of protein-protein and protein-DNA interactions in the HMGA/Ku80/Ku70 interaction. Individual wild type and engineered HMGA2 expression constructs was transfected into HeLa cells. The transfected cells were allowed to recover overnight in fresh medium prior to immunoprecipitation with an anti-HA antibody. Quantitation was done with BioRad Quantity One volume report program. After normalization with transfection efficiency and the expression level of HMGA2 and its mutant, percentage of Ku80/HMGA2 interaction is calculated by designating immunoprecipitated Ku80 with wild type HMGA2 as 100%.
To determine whether HMGA2 directly interacts with either subunit of the DNA-PK complex to dysregulate DNA-PK activation, co-immunoprecipitation assays were conducted using an anti-Ku70 antibody in HeLa and HeLa/HMGA2 cells. Cells were lysed for one hour in RIPA buffer (PBS, 1% NP40, 0.5% sodium deoxycholate, 0.1% SDS) supplemented with PMSF, aprotinin, and sodium orthovanadate immediately before use. The cell lysates were centrifuged at 10,000 rpm for 10 minutes and supernatants were collected. Protein concentrations were determined using Bradford protein assay. […] Samples were then analyzed by Western analyses. […]

HeLa cells = assay: MTT viability of Dox-treated HeLa cells transfected with HMGA2 constructs; assay type: cell-based; details: transient transfection, Dox for 72 hours
Protocol: FIG. 19: Correlation between HMGA2 binding of Ku80 and chemosensitization towards Dox. HeLa cells were transfected with individual HMGA2 wild type and engineered constructs and allowed to recover overnight prior to reseeding for cell viability assay. Cells were treated with Dox for 72 hours and followed by MTT assays. ** denotes p<0.01.
To elucidate the relevance of HMGA2 complex formation with Ku80/Ku70, the viability of Dox-treated HeLa cells transfected with HMGA2 or its engineered mutants was examined. […] The augmented resistance to Dox, relative to that of vector-transfected HeLa cells, by HMGA2(Δ83-109) and HMGA2(4P/A) mutants may be due to protein-protein interactions arising from the remaining portion of HMGA2.

Sequence of Ku80 (80-kDa subunit of the DNA-PK holoenzyme), endogenous in HeLa and HeLa/HMGA2 cells (P13010 2-732 limits assumed): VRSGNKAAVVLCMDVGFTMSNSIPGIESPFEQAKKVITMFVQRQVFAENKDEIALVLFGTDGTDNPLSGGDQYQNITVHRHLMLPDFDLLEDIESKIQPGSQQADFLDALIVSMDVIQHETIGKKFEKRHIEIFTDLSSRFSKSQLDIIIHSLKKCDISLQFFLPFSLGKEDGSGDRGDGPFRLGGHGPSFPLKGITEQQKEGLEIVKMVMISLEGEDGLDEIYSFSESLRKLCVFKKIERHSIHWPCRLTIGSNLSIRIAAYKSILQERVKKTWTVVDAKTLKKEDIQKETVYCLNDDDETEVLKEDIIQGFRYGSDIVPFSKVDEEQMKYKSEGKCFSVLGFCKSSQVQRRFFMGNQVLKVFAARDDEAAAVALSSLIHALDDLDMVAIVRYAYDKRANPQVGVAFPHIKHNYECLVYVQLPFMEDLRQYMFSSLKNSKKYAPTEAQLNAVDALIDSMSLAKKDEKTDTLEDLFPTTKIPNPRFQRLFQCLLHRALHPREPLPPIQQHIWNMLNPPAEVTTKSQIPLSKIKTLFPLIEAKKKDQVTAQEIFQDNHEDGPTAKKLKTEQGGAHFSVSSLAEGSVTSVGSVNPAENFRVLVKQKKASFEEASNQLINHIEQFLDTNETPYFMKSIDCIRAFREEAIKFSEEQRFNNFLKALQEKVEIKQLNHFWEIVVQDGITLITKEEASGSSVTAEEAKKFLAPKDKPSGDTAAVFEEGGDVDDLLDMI
T1 sequence (P13010 2-732 limits assumed): as above
T1 sequence (P12956 2-609 partner limits assumed): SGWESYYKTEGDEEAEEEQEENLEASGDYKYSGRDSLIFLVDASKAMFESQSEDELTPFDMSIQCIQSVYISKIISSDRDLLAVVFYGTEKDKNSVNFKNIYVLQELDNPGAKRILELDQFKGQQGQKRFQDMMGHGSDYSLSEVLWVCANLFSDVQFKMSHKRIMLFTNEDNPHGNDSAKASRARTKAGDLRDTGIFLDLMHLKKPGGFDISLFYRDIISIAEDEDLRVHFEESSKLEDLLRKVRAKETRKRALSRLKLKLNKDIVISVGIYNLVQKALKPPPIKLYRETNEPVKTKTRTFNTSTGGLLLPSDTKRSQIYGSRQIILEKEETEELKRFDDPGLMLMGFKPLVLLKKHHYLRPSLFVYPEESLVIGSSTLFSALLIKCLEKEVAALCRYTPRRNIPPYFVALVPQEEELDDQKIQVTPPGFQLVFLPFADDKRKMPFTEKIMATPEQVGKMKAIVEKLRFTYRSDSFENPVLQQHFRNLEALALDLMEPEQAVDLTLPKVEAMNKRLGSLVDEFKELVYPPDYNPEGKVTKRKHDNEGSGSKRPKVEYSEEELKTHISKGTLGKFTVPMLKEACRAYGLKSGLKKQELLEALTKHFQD
Sequence of ATM (Q13315 whole entry, species assumed): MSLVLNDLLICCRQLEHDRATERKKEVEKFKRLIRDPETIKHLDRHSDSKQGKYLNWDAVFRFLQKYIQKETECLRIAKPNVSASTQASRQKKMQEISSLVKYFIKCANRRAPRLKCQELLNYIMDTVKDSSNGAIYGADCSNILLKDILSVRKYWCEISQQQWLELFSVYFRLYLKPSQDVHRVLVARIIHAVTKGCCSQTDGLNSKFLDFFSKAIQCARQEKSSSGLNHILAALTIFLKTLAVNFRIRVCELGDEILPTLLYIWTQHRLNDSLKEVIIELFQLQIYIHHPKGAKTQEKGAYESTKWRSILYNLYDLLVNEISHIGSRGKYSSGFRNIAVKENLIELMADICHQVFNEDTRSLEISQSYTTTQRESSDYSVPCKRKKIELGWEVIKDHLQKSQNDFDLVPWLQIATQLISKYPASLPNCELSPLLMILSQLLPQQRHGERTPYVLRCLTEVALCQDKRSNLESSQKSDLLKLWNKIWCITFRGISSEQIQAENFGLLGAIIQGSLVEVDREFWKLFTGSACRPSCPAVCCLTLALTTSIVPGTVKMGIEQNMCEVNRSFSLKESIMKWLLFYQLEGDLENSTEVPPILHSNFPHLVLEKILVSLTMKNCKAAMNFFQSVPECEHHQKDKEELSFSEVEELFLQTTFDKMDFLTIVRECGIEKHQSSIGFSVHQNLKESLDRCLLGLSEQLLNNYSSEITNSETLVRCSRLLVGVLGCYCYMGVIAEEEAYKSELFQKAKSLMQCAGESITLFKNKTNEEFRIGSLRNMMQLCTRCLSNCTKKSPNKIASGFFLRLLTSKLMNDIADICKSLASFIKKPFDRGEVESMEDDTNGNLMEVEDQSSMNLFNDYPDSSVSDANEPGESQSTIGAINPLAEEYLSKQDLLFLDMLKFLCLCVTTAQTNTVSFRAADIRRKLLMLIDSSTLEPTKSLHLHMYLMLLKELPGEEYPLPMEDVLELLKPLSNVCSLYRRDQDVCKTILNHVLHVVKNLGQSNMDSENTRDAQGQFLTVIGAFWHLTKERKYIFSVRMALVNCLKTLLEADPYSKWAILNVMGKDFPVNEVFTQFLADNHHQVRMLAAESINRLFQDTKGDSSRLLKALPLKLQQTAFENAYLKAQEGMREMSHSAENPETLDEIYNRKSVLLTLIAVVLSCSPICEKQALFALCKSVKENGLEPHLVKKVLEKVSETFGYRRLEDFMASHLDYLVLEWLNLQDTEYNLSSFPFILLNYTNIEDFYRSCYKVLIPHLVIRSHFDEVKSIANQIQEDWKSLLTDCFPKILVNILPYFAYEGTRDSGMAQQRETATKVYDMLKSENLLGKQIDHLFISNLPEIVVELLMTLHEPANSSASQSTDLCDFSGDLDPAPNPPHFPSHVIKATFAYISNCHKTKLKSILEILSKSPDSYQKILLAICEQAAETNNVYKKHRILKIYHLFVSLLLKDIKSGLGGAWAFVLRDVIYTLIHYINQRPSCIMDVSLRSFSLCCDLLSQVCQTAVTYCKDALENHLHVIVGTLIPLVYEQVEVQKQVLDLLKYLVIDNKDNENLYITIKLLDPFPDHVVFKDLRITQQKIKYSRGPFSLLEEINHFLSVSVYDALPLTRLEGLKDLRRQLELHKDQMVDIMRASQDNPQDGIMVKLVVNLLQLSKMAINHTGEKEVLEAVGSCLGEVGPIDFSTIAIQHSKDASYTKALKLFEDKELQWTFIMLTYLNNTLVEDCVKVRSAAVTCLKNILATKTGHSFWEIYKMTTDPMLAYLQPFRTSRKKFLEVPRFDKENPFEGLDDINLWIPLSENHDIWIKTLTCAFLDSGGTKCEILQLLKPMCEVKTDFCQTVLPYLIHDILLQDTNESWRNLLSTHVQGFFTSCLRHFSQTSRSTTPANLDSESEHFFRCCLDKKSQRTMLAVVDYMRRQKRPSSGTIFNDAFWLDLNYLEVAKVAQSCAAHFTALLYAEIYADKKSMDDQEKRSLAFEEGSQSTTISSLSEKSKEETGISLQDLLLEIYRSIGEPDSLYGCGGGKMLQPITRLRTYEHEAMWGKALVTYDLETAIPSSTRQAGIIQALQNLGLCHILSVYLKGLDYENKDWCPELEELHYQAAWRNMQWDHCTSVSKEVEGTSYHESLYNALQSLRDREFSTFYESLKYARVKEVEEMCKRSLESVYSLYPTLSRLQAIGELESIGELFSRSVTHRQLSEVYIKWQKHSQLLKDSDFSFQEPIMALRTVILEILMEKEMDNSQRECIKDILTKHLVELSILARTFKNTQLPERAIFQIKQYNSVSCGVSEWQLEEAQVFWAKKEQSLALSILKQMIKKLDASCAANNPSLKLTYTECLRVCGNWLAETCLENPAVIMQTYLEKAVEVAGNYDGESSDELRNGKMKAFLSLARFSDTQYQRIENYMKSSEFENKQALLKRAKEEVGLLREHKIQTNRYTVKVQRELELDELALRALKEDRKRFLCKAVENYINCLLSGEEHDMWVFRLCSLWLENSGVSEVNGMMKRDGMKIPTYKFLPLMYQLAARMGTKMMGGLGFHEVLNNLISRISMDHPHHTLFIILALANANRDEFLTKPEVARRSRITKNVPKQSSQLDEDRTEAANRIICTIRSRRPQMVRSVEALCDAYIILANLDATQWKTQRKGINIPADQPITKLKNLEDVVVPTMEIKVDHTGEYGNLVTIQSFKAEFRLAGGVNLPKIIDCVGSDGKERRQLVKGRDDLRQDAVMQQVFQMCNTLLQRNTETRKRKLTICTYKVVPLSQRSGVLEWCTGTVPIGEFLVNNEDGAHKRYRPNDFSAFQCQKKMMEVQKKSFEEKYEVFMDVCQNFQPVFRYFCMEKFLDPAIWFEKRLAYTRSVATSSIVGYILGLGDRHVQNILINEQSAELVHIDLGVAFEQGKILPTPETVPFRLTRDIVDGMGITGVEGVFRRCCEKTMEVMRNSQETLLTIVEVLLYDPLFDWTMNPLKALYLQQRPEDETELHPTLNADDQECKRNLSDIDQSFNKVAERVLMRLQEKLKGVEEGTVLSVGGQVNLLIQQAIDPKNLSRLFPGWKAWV

O=c1cc(N2CCOCC2)oc2c1ccc1ccccc12 [NU7026]
effect of pre-treatment on basal or Dox-induced H2AX phosphorylation ([1]; Pa-4/HMGA2 cells): little or no effect | effect of pre-treatment on Dox-induced H2AX phosphorylation ([1]; Pa-4 cells): attenuated | effect of pre-treatment on Dox-induced H2AX phosphorylation (H2AX phosphorylation; HCC1419 cells, 2 μM Dox): downregulated | effect of pre-treatment on H2AX phosphorylation (H2AX phosphorylation; HS578T cells, with or without 2 μM Dox): did not decrease H2AX phosphorylation in either the presence or absence of Dox treatment | selectivity for DNA-PK (DNA-PK): highly selective for DNA-PK | activity against ATM (ATM): inactive | activity against ATR (ATR): inactive

CC(=O)O[C@H]1C(=O)[C@@]2(C)[C@H]([C@H](OC(=O)c3ccccc3)[C@]3(O)C[C@H](OC(=O)[C@H](O)[C@@H](NC(=O)c4ccccc4)c4ccccc4)C(C)=C1C3(C)C)[C@]1(OC(C)=O)CO[C@@H]1C[C@@H]2O [Taxol]
Taxol-induced cell growth inhibition, HeLa versus HeLa/HMGA2 [2]: no substantial difference in the response to Taxol between HeLa and HeLa/HMGA2 cells

Cn1c(=O)c2c(ncn2C)n(C)c1=O [caffeine]
effect on Dox-induced G2/M arrest (Pa-4 cells): greatly reduced Dox-induced G2/M arrest | cell cycle distribution / cells in G2/M, single agent (Pa-4/HMGA2 cells; 4 mM caffeine or 1 μM Dox, 48 hours): decreased the number of cells in G2/M | apoptosis with both caffeine and Dox (Pa-4/HMGA2 cells; caffeine with Dox): apoptosis levels greater than those observed after treatment with caffeine or Dox alone

CCc1c2c(nc3ccc(OC(=O)N4CCC(N5CCCCC5)CC4)cc13)-c1cc3c(c(=O)n1C2)COC(=O)[C@]3(O)CC [irinotecan]
difference in decrease of viability between Pa-4/HMGA2 and Pa-4 cells ([3]; 72 hours): little difference observed between the two cell types | cell viability / growth inhibition ([3]; 72 hours after treatment): dose-dependent growth inhibition in both cell types

HA-HMGA2 (HA-tagged wild-type high-mobility group A2 protein expressed from pcDNA3.1/HA-HMGA2 in HeLa cells) (from UniProt P52926 1-109)
percentage of Ku80/HMGA2 interaction [4]: 100%

HA-HMGA2(Δ66-109) (from UniProt P52926 1-65)
decrease of the interaction with Ku80 against wild-type HMGA2 [5]: > 70%

HA-HMGA2(Δ83-109) (from UniProt P52926 1-82)
decrease of the interaction with Ku80 against wild-type HMGA2 [5]: > 50%

B1: HMGA2(2K/R): SUMOylation-defective HMGA2 mutant with Lys→Arg point mutations at residues 66 and 67 (protein, UniProt P52926 2-109, looked up, variant K66R K67R)
High mobility group protein …: SARGEGAGQPSTSAQGQPAAPAPQKRGRGRPRKQQQEPTGEPSPKRPRGRPKGSKNKSPSKAAQRRAEATGEKRPRGRPRKWPQQVVQKKPAQEETEETSSQESAEED
effect on cytotoxicity elicited by Dox [6]: partially reversed the cytotoxicity | effect on cytotoxicity elicited by cisplatin [6]: partially reversed the cytotoxicity

B2: HMGA2(Δ1-24): truncated HMGA2 carrying deletion of the N-terminus (protein, UniProt P52926 25-109, looked up, fragment)
chain: QKRGRGRPRKQQQEPTGEPSPKRPRGRPKGSKNKSPSKAAQKKAEATGEKRPRGRPRKWPQQVVQKKPAQEETEETSSQESAEED
modifications: HA tag
notes: truncated HMGA2 carrying deletion of the N-terminus
ability to interact with Ku80 (Ku80): retained the full ability to interact with Ku80 | sensitivity of transfected HeLa cells to Dox (HeLa cells): enhanced the sensitivity of HeLa cells to Dox

B3: HMGA2(4P/A): HMGA2 mutant with four Pro→Ala mutations at amino acid positions 48, 52, 76, and 80 (protein)
chain: MSARGEGAGQPSTSAQGQPAAPAPQKRGRGRPRKQQQEPTGEPSPKRARGRAKGSKNKSPSKAAQKKAEATGEKRARGRARKWPQQVVQKKPAQEETEETSSQESAEED
modifications: left off: small tags and cut ends
ability to interact with Ku80 (Ku80): almost completely abrogated the binding of HMGA2 to Ku80 | sensitivity of transfected HeLa cells to Dox (HeLa cells): relatively greater resistance to Dox-treatment

B4: HMGA2(Δ83-109): truncated HMGA2 carrying deletion of the C-terminus (protein, UniProt P52926 1-82, looked up, fragment)
chain: MSARGEGAGQPSTSAQGQPAAPAPQKRGRGRPRKQQQEPTGEPSPKRPRGRPKGSKNKSPSKAAQKKAEATGEKRPRGRPRK
modifications: HA tag
notes: truncated HMGA2 carrying deletion of the C-terminus
sensitivity of transfected HeLa cells to Dox (HeLa cells): relatively greater resistance to Dox-treatment
